Source: patent US20240041877A1, “DOSAGE REGIME AND METHOD FOR TREATING PULMONARY ARTERIAL HYPERTENSION” (Altavant Sciences GmbH, priority 2019, published 2024)

Test: Study KAR5585-101 Part 1 (SAD): plasma pharmacokinetics after a single oral dose of KAR5585, fasting and fed (incl. dose proportionality and food effect)
Conditions: for half-life / AUC / AUC(0-inf) / Cmax / Vd/F / Tmax: human, po; for AUC: AUC0-tau; for Vd/F: Vz/F; for Tmax: Median
[1] = 100 mg KAR5585 single oral, fasted, Cohort 1, Geo. Mean
[2] = 100 mg KAR5585 single oral, fasted, Cohort 1, Mean
[3] = 200 mg KAR5585 single oral, fasted, Cohort 2, Geo. Mean
[4] = 200 mg KAR5585 single oral, fasted, Cohort 2, Mean
[5] = 400 mg KAR5585 single oral, fasted, Cohort 3A, Geo. Mean
[6] = 400 mg KAR5585 single oral, fasted, Cohort 3A, Mean
[7] = 400 mg KAR5585 single oral, fed, Cohort 3B, Geo. Mean
[8] = 400 mg KAR5585 single oral, fed, Cohort 3B, Mean
[9] = 700 mg KAR5585 single oral, fasted, Cohort 4, Geo. Mean
[10] = 700 mg KAR5585 single oral, fasted, Cohort 4, Mean
[11] = 1200 mg KAR5585 single oral, fasted, Cohort 5, Geo. Mean
[12] = 1200 mg KAR5585 single oral, fasted, Cohort 5, Mean
[13] = 2000 mg KAR5585 single oral, fasted, Cohort 6, Geo. Mean
[14] = 2000 mg KAR5585 single oral, fasted, Cohort 6, Mean
[15] = 100 to 2000 mg KAR5585 single oral dose, fasting, plasma analyte = label
[16] = plasma, 100 mg, 100 mg KAR5585 single oral, fasted, Cohort 1, Geo. Mean
[17] = plasma, 100 mg, 100 mg KAR5585 single oral, fasted, Cohort 1, Mean
[18] = plasma, 200 mg, 200 mg KAR5585 single oral, fasted, Cohort 2, Geo. Mean
[19] = plasma, 200 mg, 200 mg KAR5585 single oral, fasted, Cohort 2, Mean

CCOC(=O)[C@@H]1CC2(CCN(c3cc(O[C@H](c4ccc(Cl)cc4-c4ccccc4)C(F)(F)F)nc(N)n3)CC2)CN1 [KAR5585, (S)-ethyl 8-(2-amino-6-((R)-1-(5-chloro-[1,1′-biphenyl]-2-yl)-2,2,2-trifluoroethoxy)pyrimidin-4-yl)-2,8-diazaspiro[4.5]decane-3-carboxylate]
AUC0-24/D [1]: 0.475 (hr*ng/ml)/mg | C12 [1]: BLQ | CL/F [1]: 2110 L/h | Cmax/D [1]: 0.132 (ng/mL)/mg | AUC0-24/D [2]: 0.496 (hr*ng/ml)/mg | C12 [2]: BLQ | CL/F [2]: 2210 L/h | Cmax/D [2]: 0.139 (ng/mL)/mg | AUC0-24/D [3]: 0.467 (hr*ng/ml)/mg | C12 [3]: BLQ | CL/F [3]: 2100 L/h | Cmax/D [3]: 0.0875 (ng/mL)/mg | AUC0-24/D [4]: 0.485 (hr*ng/ml)/mg | C12 [4]: BLQ | CL/F [4]: 2220 L/h | Cmax/D [4]: 0.0961 (ng/mL)/mg | AUC0-24/D [5]: 0.707 (hr*ng/ml)/mg | CL/F [5]: 1390 L/h | Cmax/D [5]: 0.105 (ng/mL)/mg | AUC0-24/D [6]: 0.742 (hr*ng/ml)/mg | CL/F [6]: 1480 L/h | Cmax/D [6]: 0.132 (ng/mL)/mg | AUC0-24/D [7]: 2.19 (hr*ng/ml)/mg | CL/F [7]: 443 L/h | Cmax/D [7]: 0.413 (ng/mL)/mg | AUC0-24/D [8]: 2.21 (hr*ng/ml)/mg | CL/F [8]: 449 L/h | Cmax/D [8]: 0.422 (ng/mL)/mg | AUC0-24/D [9]: 0.584 (hr*ng/ml)/mg | CL/F [9]: 1700 L/h | Cmax/D [9]: 0.136 (ng/mL)/mg | AUC0-24/D [10]: 0.617 (hr*ng/ml)/mg | CL/F [10]: 1810 L/h | Cmax/D [10]: 0.142 (ng/mL)/mg | AUC0-24/D [11]: 0.333 (hr*ng/ml)/mg | CL/F [11]: 2960 L/h | Cmax/D [11]: 0.0568 (ng/mL)/mg | AUC0-24/D [12]: 0.378 (hr*ng/ml)/mg | CL/F [12]: 3850 L/h | Cmax/D [12]: 0.0692 (ng/mL)/mg | AUC0-24/D [13]: 0.348 (hr*ng/ml)/mg | CL/F [13]: 3000 L/h | Cmax/D [13]: 0.0475 (ng/mL)/mg | AUC0-24/D [14]: 0.403 (hr*ng/ml)/mg | CL/F [14]: 3820 L/h | Cmax/D [14]: 0.0522 (ng/mL)/mg | Dose proportionality power model, AUC0-12: Intercept estimate [15]: 1.51 | Dose proportionality power model, AUC0-inf: Intercept estimate [15]: 1.46 | Dose proportionality power model, AUC0-tau: Intercept estimate [15]: 0.258 | Dose proportionality power model, Cmax: Intercept estimate [15]: 0.534 | half-life (in vivo, 200 mg): 3.17 h | AUC [16]: 27.4 ng·h/mL | AUC [17]: 35 ng·h/mL | AUC(0-inf) (plasma, 100 mg, AUC0-∞, 100 mg KAR5585 single oral, fasted, Cohort 1, Geo. Mean): 47.5 ng·h/mL | AUC(0-inf) (plasma, 100 mg, AUC0-∞, 100 mg KAR5585 single oral, fasted, Cohort 1, Mean): 49.5 ng·h/mL | Cmax [16]: 13.2 ng/mL | Cmax [17]: 13.9 ng/mL | Vd/F [16]: 5190 L | Vd/F [17]: 5680 L | half-life (plasma, 100 mg, t1 (t½, apparent terminal half-life), 100 mg KAR5585 single oral, fasted, Cohort 1, Geo. Mean): 1.71 h | half-life (plasma, 100 mg, t1 (t½, apparent terminal half-life), 100 mg KAR5585 single oral, fasted, Cohort 1, Mean): 1.89 h | Tmax (plasma, 100 mg, 100 mg KAR5585 single oral, fasted, Cohort 1): 1.5 h | AUC [18]: 52 ng·h/mL | AUC [19]: 61.4 ng·h/mL | AUC(0-inf) (plasma, 200 mg, AUC0-∞, 200 mg KAR5585 single oral, fasted, Cohort 2, Geo. Mean): 95.3 ng·h/mL | AUC(0-inf) (plasma, 200 mg, AUC0-∞, 200 mg KAR5585 single oral, fasted, Cohort 2, Mean): 99.5 ng·h/mL | Cmax [18]: 17.5 ng/mL | Cmax [19]: 19.2 ng/mL | Vd/F [18]: 9610 L | Vd/F [19]: 10300 L | half-life (plasma, 200 mg, t1 (t½, apparent terminal half-life), 200 mg KAR5585 single oral, fasted, Cohort 2, Mean): 3.63 h | Tmax (plasma, 200 mg, 200 mg KAR5585 single oral, fasted, Cohort 2): 1.78 h | AUC(0-inf) (plasma, 400 mg, AUC0-inf, Geometric Mean, Cohort 3A (Fasting), 400 mg KAR5585 single oral dose, fasting): 288 ng·h/mL | AUC(0-inf) (plasma, 400 mg, AUC0-inf, Geometric Mean, Cohort 3B (Fed), 400 mg KAR5585 single oral dose, fed): 903 ng·h/mL | AUC (plasma, 400 mg, 400 mg KAR5585 single oral, fasted, Cohort 3A, Geo. Mean): 176 ng·h/mL
